Tests used:
[1] = Biopharmaceutics Classification System (BCS) classification; format: physicochemical
Description: Under the BCS system Class II compounds are sparingly soluble with high permeability.

[2] = pH-dependent aqueous solubility of the Agent; format: physicochemical; details: free-base form
[3] = aqueous dissolution medium containing 4% sodium lauryl sulfate, in 60 minutes; cited from earlier work

BCS class [1] | solubility ([2]; above pH 7) | ml of aqueous solvent required to dissolve 1 g of Agent ([2]; pH 6) [mL] | SMILES | % dissolution [3]
Class II | very low solubility | ≥ 10000 | COc1cc2ncnc(Nc3ccc(F)c(Cl)c3)c2cc1OCCCN1CCOCC1 [Agent, 4-(3′-chloro-4′-fluoroanilino)-7-methoxy-6-(3-morpholinopropoxy)quinazoline] | –
– | – | – | COC1=CC(=O)C[C@@H](C)[C@]12Oc1c(Cl)c(OC)cc(OC)c1C2=O [Griseofluvin] | at least 75%
